In assay [1] the test system is B16 tumour cells. Nature of the assay: Direct tumour therapy with CpG and Celecoxib. The following applies: CpG 20 μg, Celecoxib 500 μg or both s.c. at tumour site, days 3, 5 and 7. In kind it is in vivo, C57BL/6 mice. As to the method: C57BL/6 mice were challenged with 2×10^5 tumour cells s.c. and injected s.c. on days 3, 5 and 7 with either CpG (10 or 20 μg), the Cox-2 inhibitor Celecoxib (100 or 500 μg) or a combination of both at the tumour site. Mice were routinely monitored for tumour growth and survival. Tumour size was measured in two dimensions by callipers and determined by the following formula: (width^2×length)×π/6 where width is the lesser value. Mice were killed when tumour a length measured greater than 15 mm.
Mice were routinely monitored for tumour growth (FIG. 19).
Tumour volumes were routinely monitored (FIG. 20).
C57BL/6 mice were challenged with 2×10^5 tumour cells s.c. and injected s.c. on days 3, 5 and 7 with either CpG (20 μg), the Cox-2 inhibitor Celecoxib (500 μg) or a combination of both at the tumour site. Mice were routinely monitored for tumours and survival (FIG. 21).

In assay [2] the test system is IFN-gamma- and IL-10-secreting T cells. In words: DC transfer experiment (KLH, CpG and inhibitors), T cell responses in vivo. On the set-up: species or system C57BL/6 mice. The following applies: DC with KLH 5 μg, CpG 5 μg and inhibitors (NS-398 5 μM, SB203580 1 μM, U0126 5 μM) into footpad; day 5 cells restimulated with KLH. As to the method: 2.5×10^5 treated cells were injected into each footpad. Popliteal lymph nodes and spleens were removed after 5 days, and single cell suspensions were restimulated with KLH (2, 10, 50 μg/ml). S/N were removed after 3 days, and aliquots were measured for IFN-gamma and IL-10 by ELISA.
2.5×10^5 treated cells were injected into each footpad of 57BL-6 mice. Popliteal lymph nodes and spleens were removed after 5 days, and single cell suspensions were restimulated with KLH (2, 10, 50 μg/ml). Supernatants were removed after 3 days, and IFN-gamma and IL-10 concentrations quantified by ELISA (FIG. 13).

Assay [3] has as its system bone marrow-derived DC. In words: CpG-stimulated DC with Cox-2 inhibitor NS-398, cytokine ELISA. The class given is cell-based, C57BL/6 mice.
Protocol: (§1) Bone-marrow derived immature DC (BMDC) were generated by cultivation of extracted bone marrow cells with GM-CSF (40 ng/ml) for 10 days. BMDC from either BALB/c or C57BL/6 mice were incubated with 1 ng/ml-10 μg/ml of the TLR agonists, Pam3CSK4, Zymosan, LPS, Flagellin, PolylC, CpG-OCDN or medium only.
Assay [4] relates to bone marrow-derived DC. Nature of the assay: CpG-stimulated DC with Cox-2 inhibitor NS-398, cytokine mRNA RT-PCR. The class given is cell-based, C57BL/6 mice.
A further assay concerns CD80 on CD11c+ DC. In words: CD80 expression on DC (cytofluorometric analysis). The class given is cell-based. The following applies: HSP70 vaccine 5 mg/ml, NS398 5 mM, 24 hours, gated on CD11c+. As to the method:
Bone marrow derived DC were incubated with medium only (Control), HSP70 vaccine (5 mg/ml), the Cox-2 inhibitor NS398 (5 mM), HSP70 and Cox-2 inhibitor or LPS (10 ng/ml). After 24 hours cells were labelled with anti-CD80 and CD11C antibodies and cytofluorometric analysis performed. Results represent mean fluorescence intensity (MFI) on cells that were gated on the CD11c+ DC population (FIG. 24).

Assay [5] relates to PGE2 production by dendritic cells. Nature of the assay: TLR agonist induced PGE2 production by DC (ELISA). In kind it is cell-based. The following applies: 24 hours. The method, then: Bone marrow-derived dendritic cells (DC) were stimulated in vitro with CpG (5 μg) or the ERK inhibitor, U0126 (5 μM), or both for 24 hours. Supernatants were removed and PGE2 concentrations determined by ELISA. **p<0.01 CpG+p38 inhibitor versus CpG by ANOVA (FIG. 25).
Bone marrow-derived DC were stimulated with CpG (5 μg) alone or in the presence of the Cox-2 inhibitor, NS-398. After 24 hours, supernatants were removed and concentrations of PGE2 (FIG. 26(a)) were determined by ELISA. *p<0.05 CpG+p38 inhibitor versus CpG by ANOVA.
Supernatants were removed and PGE2 concentrations determined by ELISA. *p<0.05 CpG+p38 inhibitor versus CpG by ANOVA (FIG. 27).
Background: In an ELISA, binding on a coated surface is turned into a signal by an enzyme label.

The subject of assay [6] is CD4+ T cells from D011.10 OVA-TCR Tg mice. Nature of the assay: In vitro activation of OVA-TCR T cells with modulated DC. The class given is cell-based, BALB/c mice. Conditions: DC pulsed with OVA peptide 5 μg, CpG 10 μg alone or with SB203580 1 or 5 μM, 24 h; T cells:DC 10:1. The method, then: DC from BALB/c were incubated with OVA Class II peptide (5 μg). […] D011.10 OVA-TCR T cells were then added to the BMDC (10:1). Supernatants were removed after 3 and 11 days, and aliquots were measured for IL-10-and IFN-gamma by ELISA.
Bone marrow-derived DC from BALB/c were incubated with OVA Class II peptide (5 μg). […] Purified CD4+ T cells from D011.10 OVA-TCR Tg mice were stimulated with the DC (10:1) and supernatants were removed 3 days after antigen stimulation and IL-10 and IFNgamma quantified by ELISA (FIG. 12).

The test system of assay [7] is bone marrow-derived DC. Nature of the assay: Cytokines from DC treated with B16 tumour vaccine, CpG and p38 inhibitor (ELISA). The class given is cell-based. The following applies: DC with heat shocked and irradiated B16 cells 4 hours, CpG 5 μg, SB 203580 5 μM, 24 hours. The method, then:
Supernatants were removed after 24 hours and IL-10, IL-12p40, IL-12p70 and IL-23 concentrations were determined by ELISA. *p<0.05; ***p<0.0001, CpG+p38 inhibitor versus GpG by ANOVA.

The test system of assay [8] is B16 tumour cells. In words: Therapeutic DC vaccine pulsed with B16 cells with or without CpG and p38 inhibitor. In kind it is in vivo, C57BL/6 mice. Conditions: for protective efficacy of tumour vaccine (tumour volumes): 5×10^5 DC days 3, 10 and 17. The source says: Tumour growth was routinely monitored. Results represent tumour volumes for individual mice (FIG. 29).
Tumour growth was routinely monitored. Results represent tumour volumes for individual mice (FIG. 30).
Mice were routinely monitored for survival. Numbers in parentheses represent statistical difference versus control group (FIG. 31).

For another assay, the system named is Bordetella pertussis. Nature of the assay: Acellular pertussis vaccine, B. pertussis aerosol challenge, lung CFU counts. Conditions: mice, i.p. 0 and 4 weeks, 0.02 human dose vaccine, CpG 5 μg, SB203580 50 μM; aerosol challenge 2 weeks later. The class given is in vivo.
The subject of the next assay is spleen mononuclear cells. In words: Spleen cell IFN-gamma and IL-10 after acellular pertussis vaccination. The class given is in vivo, mice. The following applies: added to acellular pertussis vaccine with CpG 5 μg, SB203580 50 μM.
For the next assay, the system named is IL-1 beta in lungs. In words: Lung IL-1 beta after B. pertussis challenge of immunized mice. In kind it is in vivo. Conditions: added to acellular pertussis vaccine with CpG 5 μg; SB203580 50 μM; 4 hours after challenge.
The test system of assay [9] is bone marrow-derived DC. Conditions: for IL-10 production from CpG-ODN- or LPS-stimulated DC: inhibitor 1 h (U0126 1.25-5 μM, SB203580 0.1-10 μM) before CpG-ODN 5 μg/ml or LPS 100 ng/ml, 24 h; for IL-12p70 production from TLR ligand-stimulated DC: inhibitor pre-incubation, LPS or CpG-ODN.
Protocol: as §1
DC were pre-incubated for 1 h with the MEK 1/2 inhibitor (U0126) and then incubated for 15 min with medium only or with Pam3Cys, Zymosan, LPS, Flagellin, or CpG-ODN (1 or 5 μg/ml). […] DC were stimulated with medium only (0) or for 0.5, 1, 2, 4, 8 or 12 h with LPS (100 ng/ml). […] Cells treated with DMSO were used as negative controls.
Superntants were removed, and aliquots was measured for IL-10, IL-12p70 and IL-6 by ELISA (FIG. 11).
Another assay deals with ERK. The class given is cell-based, mice. The method, then:
In certain experiments, the ERK or p38 inhibitors were added 1 hr before the TLR ligands. Cell lysates were resolved by SDS-PAGE, transferred to nitrocellulose membranes and blotted with antibodies specific for phospho-p38 (pp38; Cell Signal Technology, Mass., USA), or phospho-ERK (pERK; Santa Cruz Biotechnologies, USA) and a horseradish peroxidase-linked secondary antibody. The nitrocellulose was stripped and probed with antibodies specific for total p38 or total ERK.

In assay [10] the test system is immature bone marrow-derived DC. In words: DC activation by TLR ligands, cytokine ELISA. The following applies: 1 ng/ml-10 μg/ml TLR ligand, 24 h. The method, then:
After 24 h, supernatants were removed and IL-10, IL-12p40 and IL-12p70 concentrations determined by ELISA. NT, not tested (FIG. 9).

The test system of assay [11] is draining lymph node cells. In words: Immunisation with KLH and TLR ligands, antigen-specific cytokine production by lymph node cells (ELISA). Conditions: s.c. KLH 5 μg alone or with adjuvant; lymph node cells day 7, KLH 50 μg/ml, 3 days. The class given is in vivo, BALB/c mice.
Where [12] appears, read: CpG 10 μg alone or with various concentrations of NS-398, 24 h.
The mark [13] stands for this setting: CpG 10 μg alone or with NS-398 1 or 10 μM, 24 h.
[14] abbreviates: CpG 5 μg with inhibitor (U0126 5 μM or NS-398).

Consider seven molecules from patent US20100003287A1, “Compositions and Methods Relating to Treatment of Cancer and Infectious Diseases” (THE PROVOST, FELLOWS AND SCHOLARS OF THE COLL. OF THE HOLY …, priority 2005, published 2010).

For `Cc1ccc(-c2cc(C(F)(F)F)nn2-c2ccc(S(N)(=O)=O)cc2)cc1` [Celecoxib], the mice survived in the assay with B16 tumour cells [1] stood at 20%.

With `CS(=O)(=O)Nc1ccc([N+](=O)[O-])cc1OC1CCCCC1` [NS-398], in assay [2], the “induction of IFN-gamma-secreting T cells (Th1) in vivo” value (“induction … (Th1) in vivo” for short) is given as “enhanced” and the “induction of IL-10 secreting T cells in vivo” value is reported as “suppressing”. The “CpG-induced IL-10 production by dendritic cells” value in the assay with bone marrow-derived DC [3] (CpG 5 μg with NS-398, 24 h) is recorded as “reverses”. Besides, in the assay with bone marrow-derived DC [3] (setting [12]), the “IL-10 production by DC” value is “suppressed” and the “IL-12p40 (IL-12) production by DC” value is “enhanced”. Besides, in the assay with bone marrow-derived DC [4] (setting [13]), the “IL-12p35 mRNA expression in DC” value is reported as “enhanced” and the “IL-12p40 mRNA expression in DC” value is recorded as “enhanced”. In the assay with bone marrow-derived DC [4] (setting [12]), the “IL-27p28 mRNA expression in DC” value is “enhanced”. In the assay on bone marrow-derived DC [4] (CpG 10 μg with NS-398, 24 h), the “CpG-induced IL-10 mRNA expression in DC” value was “suppressed”. In addition, the “CD80 expression (mean fluorescence intensity)” value with CD80 on CD11c+ DC is given as “neither Cox-2 nor HSP70 alone enhanced”. In addition, the “CpG-induced PGE2 production by dendritic cells” value (“CpG-induced PGE2 production” below) in [5] (setting [14]) was “reverses”.

Consider `C[S+]([O-])c1ccc(-c2nc(-c3ccncc3)c(-c3ccc(F)cc3)[nH]2)cc1` (stereo not shown) [SB203580], for which, in [6], the “induction of IFN-gamma-secreting T cells” value is given as “enhanced” and the “induction of IL-10 secreting T cells” value was “suppressed”. For the same molecule, in [2], the “induction … (Th1) in vivo” value is given as “enhanced” and the “induction of IL-10 secreting T cells in vivo” value was “suppressing”. Moreover, the “CpG-induced PGE2 production” value in assay [5] (DC treated with heat shocked and irradiated B16 cells 4 hours, CpG 5 μg, SB 203580 5 μM) was “reverses”. Also, in the assay with bone marrow-derived DC [7], the “CpG-induced IL-10 production by dendritic cells” value is given as “reverses”, the “IL-12 production by dendritic cells” value is “enhancing” and the IL-23 production result is listed as “not affected”. For the same molecule, the survival of mice result with B16 tumour cells [8] (DC activated with killed whole B16 cells alone or with CpG 5 μg, SB 203580 5 μM, days 3, 10 and 17) is “enhances survival”. For the same molecule, in the assay on B16 tumour cells [8] (DC activated with killed whole B16 cells and CpG 5 μg, SB203580 5 μM), the “protective efficacy of tumour vaccine (tumour volumes)” value is “enhances”. Also, the “protective efficacy of tumour vaccine (tumour volumes)” value with B16 tumour cells [8] (DC activated with killed whole B16 cells, SB 203580 5 μM) is recorded as “enhances”. In the assay with Bordetella pertussis, the “protective efficacy against B. pertussis challenge” value is given as “significantly enhances”. Further, in the assay with spleen mononuclear cells, the IFN-gamma responses result is “enhanced” and the IL-10 responses entry is recorded as “reduced”. Also, in the assay on IL-1 beta in lungs, the “local IL-1 beta in the lungs” value is “enhanced”. Moreover, in the assay with bone marrow-derived DC [9], the “IL-10 production from CpG-ODN- or LPS-stimulated DC” value is on record as “inhibited” and the “IL-12p70 production from TLR ligand-stimulated DC” value is recorded as “enhanced”.

As for `N#CC(=C(/N)Sc1ccccc1N)/C(C#N)=C(\N)Sc1ccccc1N` [U0126], the “TLR-ligand induced ERK phosphorylation” value in the assay on ERK is on record as “inhibited”. Further, in assay [2], the “induction … (Th1) in vivo” value is “suppressed” and the “induction of IL-10 secreting T cells in vivo” value is on record as “suppressed”. Moreover, the “CpG-induced PGE2 production” value in assay [5] (setting [14]) is on record as “reverses”. Besides, in the assay with bone marrow-derived DC [9] (data not shown), the “enhancement of IL-12p70 production in DC from IL-10−/− mice” value is reported as “retained”. Moreover, in the assay on bone marrow-derived DC [9], the “IL-10 production from CpG-ODN- or LPS-stimulated DC” value is “suppressed” and the “IL-12p70 production from TLR ligand-stimulated DC” value is reported as “enhanced”.

Regarding Flagellin, in [10], the “IL-10 production from DC” value is listed as “induced production”, the “IL-12p40 production from DC” value is “induced production” and the “IL-12p70 production from DC” value is “induced production”.

Pam3CSK4: in [10], the “IL-10 production from DC” value is listed as “induced production”, the “IL-12p40 production from DC” value is “induced production” and the “IL-12p70 production from DC” value is given as “induced production”.

As for lipopolysaccharide [LPS], in [11], the “KLH-specific IFN-gamma production” value is reported as “high concentrations” and the “KLH-specific IL-4 production” value is “low or undetectable”. For the same molecule, in assay [10], the “IL-10 production from DC” value was “induced production”, the “IL-12p40 production from DC” value is on record as “induced production” and the “IL-12p70 production from DC” value is given as “induced production”. Besides, in the assay with ERK (LPS 100 ng/ml, 0.5-12 h), the “time for which LPS-induced ERK phosphorylation was still evident” value is on record as “up to 8 hours” and the “time of maximal LPS-induced ERK phosphorylation” value was determined as 30 min.
